Series [1] in a line: Pharmacokinetics of GLP-1 compound after oral gavage with delivery agent (subcutaneous control). The format is in vivo, Male Sprague Dawley rats. Particulars: rat. How it is done:
A solution of Val^8-Glu^22-GLP-1 was prepared by dissolving the GLP-1 compound in distilled water to yield a concentration of 7 mg/mL. The pH was slowly raised to 10.5 with 2 N NaOH, followed by incubation at room temperature for 30 minutes. A volume of 1 M Tris buffer, pH 8.0 was added to give a final buffer concentration 20 mM Tris, and the pH adjusted to pH 7.8 with 1 N or 5 N HCl. The solution was then filtered through a low protein binding […] syringe filter (Millex GV, Millipore) and the concentration of the GLP-1 compound was determined by UV spectroscopy. The solution was diluted to a final concentration of 5.5 mg/mL using 20 mM Tris buffer, pH 7.8. The peptide solution was then stored in 1.0 mL aliquots at −70° C. until used.
Final formulations were freshly prepared approximately 30 minutes to 1 hour prior to in vivo dosing by combining 4.5 mL of the delivery agent with 0.5 mL of the GLP-1 compound. The final formulations were dosed by oral gavage at 2 mL/kg (1.1 mg/kg GLP-1 compound, 300 mg/kg delivery agent) with to Male Sprague Dawley rats that were fasted for 12 hours prior to dosing. A subcutaneous dose of the GLP-1 compound alone was used as a control (0.011 mg/kg).

Series [2] can be described thus: Mean particle size of delivery agent suspension (Coulter LS Particle Size Analyzer). The format is physicochemical. The settings on record: suspension in 4% w/v Klucel. The procedure:
(§1) Approximately 1.7 mL of suspending agent was added to a Type I glass vial containing 300 mg of delivery agent number 9. The preparation was cooled on ice for 3 minutes, followed by probe sonication on ice for 30 minutes using a Misonix Sonicator® Ultrasonic Processor XL ( 3/16th inch microtip). […] The formulation was then diluted to 150 mg/mL with the suspending agent.

A short description of series [3]: Stability studies of delivery agents, HPLC after three days storage. In kind it is physicochemical. The settings on record: prepared at 150 mg/mL. How it is done:
Stability studies were conducted for delivery agent numbers 9, 15, and 40. The delivery agents were freshly prepared as described above respectively to achieve the desired concentration of 150 mg/mL. The samples were divided into three 2 mL aliquots and stored at −20° C., 4° C., and ambient for three days. HPLC assay development and analyses were performed at the end of the storage period.

Series [4] is described as follows: Solubility of delivery agents at desired formulation concentration. In kind it is physicochemical. Particulars: for solubility at the desired concentration of 150 mg/mL: 0.1 N NaOH base, further base to pH 11.5, and cosolvents. The procedure: Approximately 600 mg of delivery agent number 15 was weighed into Type I glass vials to which 3 mL of base (0.1 N NaOH, pH 12.7) was added to achieve a final concentration of 200 mg/mL. The pH was adjusted to 7.1 and the concentration was estimated to be 171 mg/mL. Delivery agent number 15 was then diluted to 150 mg/mL with Milli-Q® water.
Delivery agents number 40 and 9 were insoluble at the desired concentration of 150 mg/mL when followed example 1. […] Cosolvents tested included ethanol, N-methylpyrrolidone, N,N-dimethylacetamide, N,N-dimethylformamide, glycofurol, ethoxydiol, propylene glycol, polyethyleneglycol 300, and polyvinylpyrrolidone.
However, for delivery agent number 40, 150 mg was weighed into a Type I vial, to which 1 mL of Milli-Q® water was added, and the pH adjusted with 10 N NaOH.
as §1

[5] abbreviates: Peptide A 1.1 mg/kg + delivery agent 300 mg/kg, oral gavage, Tris solution.
Setting [6] is: Peptide A 1.1 mg/kg + delivery agent 300 mg/kg, oral gavage, Tris suspension.
The mark [7] stands for this setting: stored at ambient for three days.
[8] abbreviates: stored at −20° C. for three days.
Setting [9] is: Peptide A 1.1 mg/kg + delivery agent 300 mg/kg, oral gavage, Klucel suspension.
The mark [10] stands for this setting: Val8-Glu22-GLP-1 1.1 mg/kg + delivery agent 300 mg/kg, oral gavage, solution.
[11] abbreviates: Peptide A alone, no delivery agent, Tris solution, subcutaneous control 0.011 mg/kg.

Like-named read-outs stand apart in the source and are kept apart here. No end group written: not given here.

Consider `O=C(N[C@@H](Cc1ccccc1)C(=O)O)C1CCCCC1` (stereo in doubt) [Delivery agent 46], for which the AUC in series [1] (Peptide A 1.1 mg/kg + delivery agent 300 mg/kg, oral gavage, Klucel solution) is 4789.7 pg·min/mL; in series [1] (setting [5]), 19304.1 pg·min/mL. For the molecule `O=C(O)CCCCCCCNC(=O)c1ccccc1` [Delivery agent 2], in series [1] (setting [5]), the exposure (AUC) came out at 7202 pg·min/mL. Consider `CN(CCCCCCCC(=O)O)C(=O)c1ccccc1` [Delivery agent 3], for which the exposure (AUC) in series [1] (setting [5]) is 237422.3 pg·min/mL. In the case of `O=C(O)CCCCCCCNC(=O)c1ccccc1O` [Delivery agent 5], the exposure (AUC) in series [1] (setting [6]) came to 40984 pg·min/mL. `O=C(O)CCCCCCCCCNC(=O)c1ccccc1O` [Delivery agent 6]: the AUC in series [1] (setting [6]) was determined as 37926 pg·min/mL.

`CN(C)CCCCCCNC(=O)c1ccccc1O` [Delivery agent 7]: the AUC in series [1] (setting [5]) came out at 204611 pg·min/mL.

With `CN(CCCCCCCC(=O)O)C(=O)c1ccccc1O` [Delivery agent 8], in series [1] (setting [5]), the AUC came to 173548.6 pg·min/mL. Turning to `O=C(O)CCCCCCCNC(=O)c1cc(Cl)ccc1O` [Delivery agent 9], in series [2], the “mean particle size before sonication” value turned out to be 48 μm. Also, the “mean particle size after sonication” value in series [2] (probe sonication 30 minutes, pH 7.98) turned out to be 8 μm. Moreover, in series [1] (Val8-Glu22-GLP-1 1.1 mg/kg + delivery agent 300 mg/kg, oral gavage, Klucel suspension), the exposure (AUC) was 28144 ± 38576 pg·min/mL. The figures for the “Stability Data: delivery agent concentration” value (shortened to “Stability Data”) in series [3] (stored at 4° C. for three days), in series [3] (setting [7]) and in series [3] (setting [8]) were 148.6 mg/mL, 146.0 mg/mL and 153.2 mg/mL, respectively. For the same molecule, the “solubility at the desired concentration of 150 mg/mL” value in series [4] was “insoluble”. Moreover, in series [4] (aqueous), the aqueous solubility result is listed as “aqueous insolubility”.

For the molecule `Cc1cccc(C(=O)NCCCCCCCC(=O)[O-])c1[O-].[Na+].[Na+]` [Delivery agent 12], in series [1] (setting [9]), the AUC came out at 35239 pg·min/mL. Turning to `COc1cc(O)ccc1C(=O)NCCCCCCCC(=O)O` [Delivery agent 14], in series [1] (setting [5]), the area under the curve (AUC) was determined as 160066.6 pg·min/mL. Consider `COc1ccc(C(=O)NCCCCCCCC(=O)[O-])c([O-])c1.[Na+].[Na+]` [Delivery agent 15], for which the exposure (AUC) in series [1] (setting [5]) worked out at 254291 pg·min/mL; in series [1] (Peptide B + delivery agent, oral gavage, Tris solution), 82656 pg·min/mL; in series [1] (setting [10]), 254291 ± 129387 pg·min/mL. The figures for the “Stability Data” value in series [3] (stored at 4° C. for three days), in series [3] (setting [7]) and in series [3] (setting [8]) were 138.2 mg/mL, 137.4 mg/mL and 135.5 mg/mL, respectively. Regarding `COc1ccc(C(=O)NCCCCCCCN(C)C)c(O)c1` [Delivery agent 16], the AUC in series [1] (setting [9]) was determined as 19972 pg·min/mL. In the case of `CN(C(=O)c1ccccc1)c1ccc(CCCC(=O)[O-])cc1.[Na+]` [Delivery agent 19], the exposure (AUC) in series [1] (setting [6]) came out at 290106.4 pg·min/mL.

On to `O=C(N[C@@H](Cc1ccccc1)C(=O)O)c1ccccc1O` [Delivery agent 20], for which, in series [1] (setting [6]), the AUC stood at 21948 pg·min/mL. As for `O=C([O-])Cc1ccc(NC(=O)c2ccccc2O)cc1.[Na+]` [Delivery agent 21], the AUC in series [1] (setting [6]) worked out at 57166 pg·min/mL.

Consider `COc1ccccc1C(=O)Nc1ccc(CCCC(=O)O)cc1` [Delivery agent 23], for which, in series [1] (setting [5]), the exposure (AUC) was found to be 15747 pg·min/mL. On to `CN(C)c1ccc(C(=O)Nc2ccc(CCCC(=O)O)cc2)cc1` [Delivery agent 24], for which the area under the curve (AUC) in series [1] (setting [5]) stood at 21559.2 pg·min/mL. `O=C(O)CCCCCCCOc1ccccc1O` [Delivery agent 26]: in series [1] (setting [5]), the AUC amounted to 113480.1 pg·min/mL. Turning to `O=C(O)CCCCCCCOc1cccc(O)c1` [Delivery agent 27], the AUC in series [1] (setting [9]) is 299137.2 pg·min/mL. With `CC(=O)c1ccccc1OCCCCCCCC(=O)O` [Delivery agent 28], the AUC in series [1] (setting [5]) stood at 59543 pg·min/mL; in series [1] (setting [6]), 13116 pg·min/mL.

On to `CC(=O)c1ccccc1OCCCCCCCC(=O)[O-].[Na+]` [Delivery agent 29], for which, in series [1] (setting [5]), the AUC was 62303 pg·min/mL. With `CC(=O)c1ccccc1OCc1ccc(C(=O)O)cc1` [Delivery agent 30], in series [1] (setting [5]), the AUC stood at 35259 pg·min/mL. Consider `CNC(=O)c1ccccc1OCCCCCCCC(=O)O` [Delivery agent 31], for which, in series [1] (setting [5]), the AUC stood at 30164 pg·min/mL. Consider `O=C(O)CCCCCCCNC(=O)c1ccccn1` [Delivery agent 32], for which, in series [1] (setting [6]), the exposure (AUC) turned out to be 130175.6 pg·min/mL. On the same count and under the same terms, the value for `O=C(O)CCCCCCCNC(=O)c1ccncc1` [Delivery agent 34] was 6964.2 pg·min/mL. Consider `O=C(O)CCCCCCCNS(=O)(=O)c1ccccc1` [Delivery agent 36], for which, in series [1] (setting [5]), the area under the curve (AUC) was determined as 42036 pg·min/mL. In the case of `O=C(O)[C@@H](NS(=O)(=O)c1ccccc1)c1ccccc1` [Delivery agent 38], in series [1] (setting [5]), the exposure (AUC) was determined as 5669 pg·min/mL. As to `O=C(O)c1ccc(NS(=O)(=O)c2ccccc2)cc1` [Delivery agent 39], the AUC in series [1] (setting [5]) turned out to be 6087 pg·min/mL.

In the case of `O=C(O)CCCc1ccc(NS(=O)(=O)c2ccccc2)cc1` [Delivery agent 40], the area under the curve (AUC) is 94215 pg·min/mL in series [1] (setting [5]) and 94215 ± 66732 pg·min/mL in series [1] (setting [10]). Moreover, the entries for the “Stability Data” value in series [3] (stored at 4° C. for three days), in series [3] (setting [7]) and in series [3] (setting [8]) were 135.1 mg/mL, 135.3 mg/mL and 134.0 mg/mL, respectively. In series [4], the “solubility at the desired concentration of 150 mg/mL” value is on record as “insoluble”. Moreover, in series [4] (Milli-Q water, pH adjusted with 10 N NaOH, pH 8.22), the solution concentration achieved is 150 mg/mL.

With `CN(c1ccc(CCCC(=O)O)cc1)S(=O)(=O)c1ccccc1` [Delivery agent 41], in series [1] (setting [5]), the exposure (AUC) worked out at 21679.1 pg·min/mL. For `O=C(O)CCCCCCCNC(=O)C1CCCCC1` [Delivery agent 43], in series [1] (setting [6]), the area under the curve (AUC) was 7281 pg·min/mL. For the molecule `O=C(O)CCCc1ccc(NC(=O)C2CCCCC2)cc1` [Delivery agent 44], in series [1] (setting [5]), the AUC turned out to be 55671 pg·min/mL.

Regarding `CC(C)C[C@H](NC(=O)C1CCCCC1)C(=O)O` [Delivery agent 45], in series [1] (setting [5]), the AUC was determined as 13468.0 pg·min/mL. Turning to `CC(C)[C@H](NC(=O)C1CCCCC1)C(=O)O` [Delivery agent 48], in series [1] (setting [5]), the AUC is 6068.5 pg·min/mL.

On to `O=C(O)CCCCCCCNC(=O)/C=C/c1ccccc1F` [Delivery agent 51], for which, in series [1] (setting [5]), the area under the curve (AUC) was 10838 pg·min/mL. Turning to `O=C(O)CCCCCCc1nnc(-c2ccccc2)o1` [Delivery agent 53], in series [1] (setting [6]), the AUC was 337360 pg·min/mL. In the case of `O=C(O)CCCCc1nnc(-c2ccccc2O)o1` [Delivery agent 54], the results for the AUC in series [1] (setting [9]) and in series [1] (setting [6]) were 218240.8 pg·min/mL and 684087.3 pg·min/mL, respectively. Regarding `O=C(N[C@H](C(=O)O)c1ccccc1)c1ccccc1` [Delivery agent 55], the area under the curve (AUC) in series [1] (setting [5]) is 20177.7 pg·min/mL.

Regarding `O=C(N[C@@H](Cc1ccccc1)C(=O)O)c1ccccc1` [Delivery agent 56], the AUC in series [1] (setting [5]) stood at 48324.4 pg·min/mL. On to HVEGTFTSDVSSYLEEQAAKEFIAWLVKGRG [A], for which the area under the curve (AUC) was 93635 pg·min/mL in series [1] (setting [11]) and 93600 pg·min/mL in series [1] (male, Sprague Dawley, in vivo, sc, GLP-1 compound alone, solution, subcutaneous control 0.011 mg/kg, read-out: AUC (converted)). For the same molecule, the Cmax in series [1] (setting [11]) came to 3.781 ng/mL; in series [1] (male, Sprague Dawley, in vivo, sc, GLP-1 compound alone, solution, subcutaneous control 0.011 mg/kg, read-out: Cmax) it was 3.78 ± 1.1 ng/mL. Moreover, the Tmax was 10 ± 0 min in series [1] (setting [11]) and 10 min in series [1] (male, Sprague Dawley, in vivo, sc, GLP-1 compound alone, solution, subcutaneous control 0.011 mg/kg, read-out: Tmax (converted)).

By AUC is commonly meant concentration integrated over time. Usually Cmax stands for the highest concentration seen after dosing. Usually Tmax stands for the time from dosing to the highest level.
